Reference: article PMC9736855, “Discovery of 3-Amino-1H-pyrazole-Based Kinase Inhibitors to Illuminate the Understudied PCTAIRE Family” (International Journal of Molecular Sciences, 2022)

Legend:
CDK16 = target: T1, CDK16 (Homo sapiens, UniProt Q00536); test: DSF; assay type: binding; conditions: 10 μM compound
T1 construct: purchased in-house DSF panel (SGC Frankfurt)
Excerpt: (§1) To investigate the selectivity profile of the different series, a differential scanning fluorimetry (DSF) assay was used. This assay offers a rapid and sensitive screening method that determines the denaturation temperature of a protein in absence and presence of a compound. This assay format measures the fluorescence of a dye, which depends on the folding state of the protein. The difference between the melting temperature (ΔTm) in the absence and presence of the compound represents the binding strength to the protein.
(§2) Measurements were performed in duplicates.

CDK2 = target: T2, CDK2 (Homo sapiens, UniProt P24941); test: DSF; assay type: binding; conditions: 10 μM compound
T2 construct: purchased in-house DSF panel (SGC Frankfurt)
Excerpt: as §1, §2

[1] = tested on: in-house panel of 89–105 kinases; test: DSF selectivity screen; assay type: binding; conditions: number of kinases of the DSF panel
Excerpt: To investigate the selectivity profile of the different series, a differential scanning fluorimetry (DSF) assay was used. This assay offers a rapid and sensitive screening method that determines the denaturation temperature of a protein in absence and presence of a compound. This assay format measures the fluorescence of a dye, which depends on the folding state of the protein. The difference between the melting temperature (ΔTm) in the absence and presence of the compound represents the binding strength to the protein. We used an in-house panel of 89–105 kinases to screen all synthesized inhibitors (Tables S1–S3).
as §2

GSK3B = GSK3B (Homo sapiens, UniProt P49841); test: DSF; assay type: binding; parameters: purchased in-house DSF panel (SGC Frankfurt); conditions: 10 μM compound
GSK3B, sequence (P49841 35-386): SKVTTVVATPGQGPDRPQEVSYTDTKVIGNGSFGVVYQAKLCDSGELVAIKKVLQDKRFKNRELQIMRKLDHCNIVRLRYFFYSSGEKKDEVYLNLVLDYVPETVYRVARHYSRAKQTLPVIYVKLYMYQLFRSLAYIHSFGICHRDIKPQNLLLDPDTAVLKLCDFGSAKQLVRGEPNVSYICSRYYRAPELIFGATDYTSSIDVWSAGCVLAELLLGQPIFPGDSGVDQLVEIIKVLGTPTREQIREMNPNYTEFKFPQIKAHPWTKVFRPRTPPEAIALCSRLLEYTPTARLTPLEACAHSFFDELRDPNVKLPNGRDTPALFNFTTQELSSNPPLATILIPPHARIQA
Excerpt: as §1, §2

CDK16/Cyclin Y = target: T3, CDK16/Cyclin Y (Homo sapiens, UniProt Q00536); test: NanoBRET; assay type: cell-based; conditions: Figure 7, 11-point dose-response in duplicates; read-out: NanoBRET EC50 ± SEM against CDK16
T3 construct: Full-length kinases were obtained as plasmids cloned in frame with a terminal NanoLuc-fusion; CS1810C178 (CCNY); host or cells: HEK293T
T3 sequence (Q00536 whole entry, the tested form may be a part): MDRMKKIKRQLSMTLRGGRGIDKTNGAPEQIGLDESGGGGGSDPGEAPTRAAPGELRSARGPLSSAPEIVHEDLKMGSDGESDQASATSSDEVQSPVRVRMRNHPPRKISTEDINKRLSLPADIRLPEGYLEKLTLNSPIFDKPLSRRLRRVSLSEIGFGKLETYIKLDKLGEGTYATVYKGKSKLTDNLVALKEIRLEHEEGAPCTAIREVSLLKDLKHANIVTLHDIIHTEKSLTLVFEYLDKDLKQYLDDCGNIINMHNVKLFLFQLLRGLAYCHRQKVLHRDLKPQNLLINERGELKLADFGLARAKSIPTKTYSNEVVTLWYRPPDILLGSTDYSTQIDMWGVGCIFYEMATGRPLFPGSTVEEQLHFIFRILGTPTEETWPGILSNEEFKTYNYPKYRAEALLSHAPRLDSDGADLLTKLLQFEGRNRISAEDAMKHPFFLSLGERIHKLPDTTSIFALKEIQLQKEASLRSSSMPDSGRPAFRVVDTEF
T3 sequence (Q8ND76 2-341 partner limits assumed): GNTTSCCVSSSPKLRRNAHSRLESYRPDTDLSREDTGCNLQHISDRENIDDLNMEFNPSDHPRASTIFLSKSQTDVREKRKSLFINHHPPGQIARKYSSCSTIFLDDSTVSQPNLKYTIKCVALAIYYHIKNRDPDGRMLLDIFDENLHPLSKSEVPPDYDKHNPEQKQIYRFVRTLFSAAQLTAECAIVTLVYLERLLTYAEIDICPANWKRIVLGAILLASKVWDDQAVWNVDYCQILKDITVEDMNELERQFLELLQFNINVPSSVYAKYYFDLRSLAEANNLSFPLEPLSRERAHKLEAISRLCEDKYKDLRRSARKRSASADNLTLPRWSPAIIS
Method: Next, to specifically quantify the outcome of the cellular activity of the compounds, a NanoBRET cellular target engagement assay was performed. The determination of the cellular potency on CDK16 correlated well with the corresponding DSF assay data (Figure S2). […] As mentioned before, the exchange from a methyl ester to an iso-propyl or tert-butyl ester led to a higher stabilization of the kinase in the DSF assay, which correlated with an increase in cellular potency as determined in the NanoBRET assay. […] The number of potential off-targets was low with 1 and 2 kinases with ΔTm >5 °C (Figure 4), highlighting these inhibitors for more comprehensive selectivity studied within the CDK and particular the TAIRE subfamily.
The assay was performed as described previously. In brief: Full-length kinases were obtained as plasmids cloned in frame with a terminal NanoLuc-fusion (Promega, Madison, WI, USA), as specified in table (Table S6). Plasmids were transfected into HEK293T cells using FuGENE HD (Promega, E2312) and proteins were allowed to express for 20h. Serially diluted inhibitor and NanoBRET Kinase Tracer (Promega) at a concentration determined previously as the KD,app (Table S5) were pipetted into white 384-well plates (Greiner 781207) using an Echo acoustic dispenser (Labcyte, San Jose, CA, USA). The corresponding protein-transfected cells were added and reseeded at a density of 2.5 × 10^5 cells/mL after trypsinization and resuspending in Opti-MEM without phenol red (Life Technologies, Carlsbad, CA, USA). The system was allowed to equilibrate for 2 h at 37 °C/5% CO2 prior to BRET measurements. To measure BRET, NanoBRET NanoGlo Substrate + Extracellular NanoLuc Inhibitor (Promega, N2540) was added as per the manufacturer’s protocol, and filtered luminescence was measured on a PHERAstar plate reader (BMG Labtech, Ortenberg, Germany) equipped with a luminescence filter pair (450 nm BP filter (donor) and 610 nm LP filter (acceptor)). Competitive displacement data were then graphed using GraphPad Prism 9 software using a normalized 3-parameter curve fit with the following equation: Y = 100/(1 + 10^(X–LogEC50)).

HCT116-FUCCI cells = test: FUCCI cell cycle assay and viability assessment; assay type: cell-based; conditions: 1, 5, 10 µM (milciclib 1, 10 µM), 24 h
Method: This technology enables the detection of cell cycle states (G1, G2/M, or S phase) on a single cell level. Additionally, a viability assessment, as described by Tjaden et. al., was performed using Hoechst33342 as a nuclear marker. […] At 10 µM of the same compound, the pyknosed nuclei rate was even higher, on average 45% (Figure 9C). An increase in cells including a pyknosed nucleus indicate apoptotic cell death, due to typical morphological changes like DNA condensation. […] Milciclib is a published CDK2 inhibitor and was used as a reference compound [55]. […] At later time points, the G2/M phase arrest was no longer detectable (Table S7). This can be explained due to the increasing amount of apoptotic cells.
To validate the influence of the compounds on the cell cycle, a florescent ubiquitination-based cell cycle indicator (FUCCI) assay was performed as described previously. In Brief, HCT116-FUCCI cells, stably expressing the FUCCI system, introduced by the Sleeping Beauty transposon system, were seeded at a density of 1250 cells per well in a 384 well plate (Cell culture microplate, PS, f-bottom, µClear®, 781091, Greiner, Frickenhausen, Germany) in culture medium (50 µL per well) and stained additionally with 60 nM Hoechst33342 (Thermo Scientific). Fluorescence and cellular shape were measured before and after compound treatment for 72 h every 12 h using the CQ1 high-content confocal microscope (Yokogawa, Tokyo, Japan). Compounds were added directly to the cells at three different concentrations (1 µM, 5 µM and 10 µM). The following parameters were used for image acquisition: Ex 405 nm/Em 447/60 nm, 500ms, 50%; Ex 561 nm/Em 617/73 nm, 100 ms, 40%; Ex 488/Em 525/50 nm, 50 ms, 40%; Ex 640 nm/Em 685/40, 50 ms, 20 %; bright field, 300ms, 100% transmission, one centered field per well, 7 z stacks per well with 55 µm spacing. Analysis of images was performed using the CellPathfinder software (Yokogawa). The cell count was normalized against the cell count of cells treated with 0.1% DMSO. All normal gated cells were further classified in cells containing healthy, fragmented or pyknosed nuclei. […] Error bars show SEM of biological duplicates. All data can be found in Table S7.

T1 sequence (Q00536 163-478): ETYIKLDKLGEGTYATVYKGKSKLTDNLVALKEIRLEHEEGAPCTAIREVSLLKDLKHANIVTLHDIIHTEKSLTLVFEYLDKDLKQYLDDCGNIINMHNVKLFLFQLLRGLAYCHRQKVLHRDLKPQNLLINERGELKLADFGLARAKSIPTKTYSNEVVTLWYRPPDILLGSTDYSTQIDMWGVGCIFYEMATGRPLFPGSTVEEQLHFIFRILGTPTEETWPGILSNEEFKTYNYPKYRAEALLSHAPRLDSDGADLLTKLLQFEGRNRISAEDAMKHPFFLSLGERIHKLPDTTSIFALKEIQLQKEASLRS

ΔTm at 10 µM (CDK16)	ΔTm at 10 µM (CDK2)	ΔTm at 10 µM (GSK3B)	EC50 (CDK16/Cyclin Y)	Structure (SMILES)	Kinases with shifts > 5°C [1]	effect on the cell cycle (FUCCI) (HCT116-FUCCI cells)
3.2 °C	5.1 ± 0.3 °C	5.9 ± 0.3 °C	914 ± 11 nM	CC(C)(C)OC(=O)NCCCCCNc1ncc(Cl)c(Nc2cc(C3CC3)n[nH]2)n1 [13c, tert-butyl (5-((5-chloro-4-((3-cyclopropyl-1H-pyrazol-5-yl)amino)pyrimidin-2-yl)amino)pentyl)carbamate]		
1.5 ± 0.1 °C	1.2 ± 0.2 °C	1.3 ± 0.1 °C	2470 ± 248 nM	CNC(=O)c1cc(Nc2ccnc(NCCCCCNC(=O)OC(C)(C)C)n2)[nH]n1 [41b, tert-butyl (5-((4-((3-(methylcarbamoyl)-1H-pyrazol-5-yl)amino)pyrimidin-2-yl)amino)-pentyl)carbamate]		
3.2 °C	5.9 °C	4.6 °C	354 ± 60.5 nM	CC(C)(C)OC(=O)NCCc1ccc(Nc2ncc(Cl)c(Nc3cc(C4CC4)n[nH]3)n2)cc1 [13a, tert-butyl 4-((5-chloro-4-((3-cyclopropyl-1H-pyrazol-5-yl)amino)pyrimidin-2-yl)amino)phenethylcarbamate]		
5.3 °C	7.8 °C	12.3 ± 0.7 °C	112 ± 8.6 nM	COC(=O)c1cc(Nc2ccnc(Nc3ccc(CC#N)cc3)n2)[nH]n1 [21f, methyl 5-((2-((4-(cyanomethyl)phenyl)amino)pyrimidin-4-yl)amino)-1H-pyrazole-3-carboxylate]	27	
5.6 °C	5.1 °C	10.3 ± 0.1 °C	400 ± 30.6 nM	COC(=O)c1cc(Nc2ccnc(NCc3ccc(N)cc3)n2)n[nH]1 [compound 25, methyl 3-((2-((4-aminobenzyl)amino)pyrimidin-4-yl)amino)-1H-pyrazole-5-carboxylate]		
0.9 °C	1.2 ± 0.2 °C	2.9 °C	4160 ± 274 nM	CNC(=O)c1cc(Nc2ccnc(Nc3ccc(CCNC(=O)OC(C)(C)C)cc3)n2)[nH]n1 [41a, tert-butyl 4-((4-((3-(methylcarbamoyl)-1H-pyrazol-5-yl)amino)pyrimidin-2-yl)amino)-phenethylcarbamate]		
6.3 °C	8.1 ± 0.4 °C	5.8 ± 0.2 °C	191 ± 5.9 nM	Cc1cnc(NCCCCCCNC(=O)OC(C)(C)C)nc1Nc1cc(C2CC2)n[nH]1 [12e, tert-butyl (6-((4-((3-cyclopropyl-1H-pyrazol-5-yl)amino)-5-methylpyrimidin-2-yl)amino)hexyl)carbamate]		
8.8 ± 0.1 °C	11.3 °C	7.9 ± 0.1 °C	100 ± 7 nM	CC(=O)NCCCCCCNc1nccc(Nc2cc(C3CC3)n[nH]2)n1 [compound 15, N-(6-((4-((3-cyclopropyl-1H-pyrazol-5-yl)amino)pyrimidin-2-yl)amino)hexyl)acetamide]		

Second part, the compound before the results:

Structure (SMILES)	ΔTm at 10 µM (CDK16)	ΔTm at 10 µM (CDK2)	ΔTm at 10 µM (GSK3B)	EC50 (CDK16/Cyclin Y)	Kinases with shifts > 5°C [1]	effect on the cell cycle (FUCCI) (HCT116-FUCCI cells)
CC(C)(C)OC(=O)NCCCCCNc1nccc(Nc2cc(C(=O)OC(C)(C)C)[nH]n2)n1 [43b, tert-butyl 3-((2-((5-((tert-butoxycarbonyl)amino)pentyl)amino)pyrimidin-4-yl)amino)-1H-pyrazole-5-carboxylate]	9.3 ± 0.1 °C	6.5 ± 0.1 °C	6.6 ± 0.1 °C	76 ± 0.9 nM	7–10	
COC(=O)c1cc(Nc2nc(Nc3cccc(CCNC(=O)OC(C)(C)C)c3)nc3ccccc23)[nH]n1 [23b, methyl 5-((2-((3-(2-((tert-butoxycarbonyl)amino)ethyl)phenyl)amino)quinazolin-4-yl)amino)-1H-pyrazole-3-carboxylate]	0.2 ± 0.2 °C	0.6 °C	1.4 ± 0.3 °C	6820 ± 280 nM		
COC(=O)c1cc(Nc2nc(NCCCCCNC(=O)OC(C)(C)C)ncc2Cl)[nH]n1 [22c, methyl 5-((2-((5-((tert-butoxycarbonyl)amino)pentyl)amino)-5-chloropyrimidin-4-yl)amino)-1H-pyrazole-3-carboxylate]	1 ± 0.1 °C	1.5 ± 0.1 °C	4.8 ± 0.2 °C	8320 ± 227 nM		
COC(=O)c1cc(Nc2nc(NCCCCCNC(=O)OC(C)(C)C)nc3ccccc23)[nH]n1 [23c, methyl 5-((2-((5-((tert-butoxycarbonyl)amino)pentyl)amino)quinazolin-4-yl)amino)-1H-pyrazole-3-carboxylate]	3.4 ± 0.1 °C	1.3 ± 0.5 °C	4.2 °C	4600 ± 385 nM		
CC(C)(C)OC(=O)NCCCCCNc1nccc(Nc2cc(C3CC3)[nH]n2)n1 [11c, tert-butyl (5-((4-((3-cyclopropyl-1H-pyrazol-5-yl)amino)pyrimidin-2-yl)amino)pentyl) carbamate]	9.4 °C	10.4 ± 0.3 °C	7.1 ± 0.2 °C	33 ± 0.1 nM		
CNC(=O)c1nn(C)c2c1C(C)(C)Cc1cnc(Nc3ccc(N4CCN(C)CC4)cc3)nc1-2 [Milciclib, reference compound]						G1 cell cycle arrest
COC(=O)c1cc(Nc2nc(NCCCCCCNC(=O)OC(C)(C)C)ncc2Cl)[nH]n1 [22e, methyl 5-((2-((6-((tert-butoxycarbonyl)amino)hexyl)amino)-5-chloropyrimidin-4-yl)amino)-1H-pyrazole-3-carboxylate]	0.2 ± 0.3 °C	0.7 °C	2.9 ± 0.1 °C	12090 ± 65 nM		
CC(C)(C)OC(=O)NCCCCCCNc1nccc(Nc2cc(C3CC3)n[nH]2)n1 [11e, tert-butyl (6-((4-((3-cyclopropyl-1H-pyrazol-5-yl)amino)pyrimidin-2-yl)amino)hexyl)-carbamate]	8.9 ± 0.3 °C	11.2 ± 0.3 °C	6.8 °C	36 ± 1.2 nM		
CC(C)(C)OC(=O)NCCc1cccc(Nc2nccc(Nc3cc(C4CC4)n[nH]3)n2)c1 [11b, tert-butyl 3-((4-((3-cyclopropyl-1H-pyrazol-5-yl)amino)pyrimidin-2-yl)amino)phenethyl-carbamate]	6.3 ± 0.3 °C	8.2 ± 0.1 °C	7.2 ± 0.2 °C	124 ± 10.4 nM		
